Experiments:
[1] = target: T1, Human FAP Protein (Homo sapiens, UniProt Q12884); assay: Surface plasmon resonance, multi-cycle mode; type: binding; details: SPR multi-cycle
T1 construct: His; purchased Novoprotein (China)
T1 sequence (Q12884 1-760): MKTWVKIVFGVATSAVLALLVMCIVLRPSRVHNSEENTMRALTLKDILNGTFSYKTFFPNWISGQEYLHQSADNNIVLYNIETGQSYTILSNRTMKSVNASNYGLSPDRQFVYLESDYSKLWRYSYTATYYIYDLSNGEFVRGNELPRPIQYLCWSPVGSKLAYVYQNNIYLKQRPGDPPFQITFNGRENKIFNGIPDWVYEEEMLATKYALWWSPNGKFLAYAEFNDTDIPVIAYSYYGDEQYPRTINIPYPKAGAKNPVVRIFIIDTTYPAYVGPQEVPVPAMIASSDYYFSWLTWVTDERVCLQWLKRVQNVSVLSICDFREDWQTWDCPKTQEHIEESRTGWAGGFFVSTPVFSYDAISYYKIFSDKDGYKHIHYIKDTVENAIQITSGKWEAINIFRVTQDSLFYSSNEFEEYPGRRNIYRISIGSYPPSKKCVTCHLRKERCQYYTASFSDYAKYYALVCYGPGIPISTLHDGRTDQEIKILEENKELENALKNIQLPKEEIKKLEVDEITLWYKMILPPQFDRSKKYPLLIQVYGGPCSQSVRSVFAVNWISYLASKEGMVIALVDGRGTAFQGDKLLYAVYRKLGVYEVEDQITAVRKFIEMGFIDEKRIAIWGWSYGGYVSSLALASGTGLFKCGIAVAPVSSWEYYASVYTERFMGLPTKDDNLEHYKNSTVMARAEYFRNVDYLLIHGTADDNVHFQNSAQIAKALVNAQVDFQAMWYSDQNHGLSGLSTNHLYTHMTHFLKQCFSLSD
Experimental: According to US Pharmacopeia USP43 IMMUNOLOGICAL TEST METHODS-SURFACE PLASMON RESONANCE<1105> and Chinese Pharmacopoeia 2020, Volume IV, Surface plasmon resonance method, Label-free Immunochemistry (IV), 3429 Immunochemistry, General Rule, a surface plasmon resonance experiment was carried out.
A surface plasma chromatograph from Cytiva was used for measurement. Before protein injection, 400 mM condensing agent 1-ethyl-(3-dimethylaminopropyl)carbodiimide hydrochloride and 100 mM N-hydroxysuccinimide were mixed, and a CM5 sensor chip was activated with this mixture for 420 seconds at a flow rate of 10 μL/min. 50 μg/mL protein was then injected into an Fc2 sample channel at a flow rate of 10 μL/min to achieve a protein immobilization level of about 8000-15000 RU. In the control group, no protein was injected. Subsequently, the unreacted chip was blocked with 1M ethanolamine hydrochloride-NaOH at a flow rate of 10 μL/min for 420 seconds.
Different gradient solutions were injected into channels Fc1-Fc2 at a flow rate of 30 μL/min, followed by a 60-second binding phase and a 90-second dissociation phase, and data were collected.

[2] = test system: HT-1080-FAP tumor; assay: PET/CT imaging in HT-1080-FAP tumor-bearing mouse model; type: in vivo; details: ^68Ga label, 18.5 MBq via tail vein, p<0.005
Experimental: Mouse model: Nu/Nu mice (SPF grade) were purchased from Beijing Charles River Laboratories (China) and injected subcutaneously with HT-1080-FAP cells to construct a tumor model with high FAP expression.
All PET/CT scans were carried out on Mediso nanoScan® PET 122S small animal PET/CT.
After a certain number of HT-1080-FAP tumor mice were taken and injected via the tail vein with 7.4-18.5 MBq of ^68Ga/^86Y-FAPI-04 (control) and ^68Ga/^86Y-FAPI-CB series molecules at specified time points (Note: the injection of the control and investigation molecules was separated apart by at least five half-lives of the nuclide to ensure that the radioactivity of the previous probe had almost completely decayed and was essentially completely metabolized), imaging was carried out at specified time points. In some examples, the mice were anesthetized and then sacrificed by neck breaking at a certain time point. Organs were dissected and taken for radioactivity measurement.
A ^68Ge-^68Ga generator was eluted with 5 mL of 0.6 M high-purity hydrochloric acid to obtain a Ga-68 hydrochloric acid solution. 1 mL of the Ga-68 solution after elution was taken, and 100 μL of 3 M sodium hydroxide and 130 μL of 3M sodium acetate were added to adjust the acidity to a final pH of 4.0. 12 μg of FAPI-CB-00 compound was added, and the reaction mixture was heated to 70° C. and maintained for 20 min. […]

In the case of `N#C[C@@H]1CC(F)(F)CN1C(=O)CNC(=O)c1ccnc2ccc(OCCCN3CCN(C(=O)[C@H](CCCCNC(=O)c4ccc(OS(=O)(=O)F)cc4)NC(=O)CN4CCN(CC(=O)O)CCN(CC(=O)O)CCN(CC(=O)O)CC4)CC3)cc12` [FAPI-CB-01], the “affinity compared with FAPI-04” value [1] is reported as “improved by approximately two orders of magnitude”, the “binding rate compared with FAPI-04” value [1] is reported as “significantly increased” and the “dissociation rate compared with FAPI-04” value [1] is reported as “decreased”. For the same compound, the Kd ([1]; 1:1 binding model) was 4.62 pM, the “Rmax (maximum theoretical analyte binding capacity)” value ([1]; 1:1 binding model) was 29.3 RU and the kd ([1]; 1:1 binding model) was 4.79e-05 s⁻¹. The kon ([1]; 1:1 binding model, read-out: ka) was 1.04e+07 M⁻¹ s⁻¹ and the “improvement of maximum standard tumor uptake value (SUVmax) compared with FAPI-04” value [2] was “about 2 times”.

Source: US20260137820A1, “TRIFUNCTIONAL COMPOUND AND USE THEREOF” (PEKING UNIVERSITY, priority 2022, published 2026)
